Test results published in ChEMBL document CHEMBL1126503, “Syntheis of TRP-VAL non-cleavable dipeptide transition state isosteres” (Bioorg Med Chem Lett, 1993).
The source made the active and inactive calls. No cut-off for these calls is given here.

system: Endothelial cell; test: Tested for inhibition of Endothelin-converting enzyme derived from bovine endothelial cell; NA means inactive uM; format: cell-based

SMILES	inhibition
CC(C)/C(=C/C(=O)[C@H](Cc1c[nH]c2ccccc12)NC(=O)OC(C)(C)C)C(=O)O	inactive
CCOC(=O)/C(=C/C(=O)[C@H](Cc1c[nH]c2ccccc12)NC(=O)OC(C)(C)C)C(C)C	inactive
COC(=O)[C@@H](NC(=O)[C@H](CC(N)=O)NC(=O)/C(=C\C(=O)[C@H](Cc1c[nH]c2ccccc12)NC(=O)OC(C)(C)C)C(C)C)C(C)C(=O)C(C)(C)C (stereo partly drawn)	inactive
